Data taken from patent publication US8852876B2, “Label free biosensors and cells” (Corning Incorporated, priority 2008, dated 2014).
Entries after “also recorded” stand apart in the source; their conditions may differ. Where no end group is shown, it is not given here.

Test system: protease activated receptors PAR1 and PAR2
Experiment: Fluo-3 Ca2+ mobilization assay with PAR agonists
Type: cell-based, human
Conditions: cholesterol depletion; αCD up to 8 mM
Procedure: A431 at passage 3 to 5 were grown in Costar™ 96 well clear cell culture microplates until ˜95% confluency, washed twice and starved overnight with the DMEM only, washed with 1×HBSS (1× regular Hank's balanced salt solution, 20 mM HEPES buffer, pH 7.0) in the presence of 2.5 mM probenicid, and labeled in the same buffer containing 4 μM Fluo-3 for 1 hour at room temperature. The cells were then washed twice with buffer, maintained with 100 μl 1×HBSS containing 2.5 mM probenicid. The assay was initiated by transferring 50 μl PAR agonist solution to the cell plate, and calcium signal was recorded over 6 minutes with a 6 sec interval using HTS7000 BioAssay Reader (PerkinElmer Life Science, Boston, Mass.). The assays were carried out at room temperature in order to allow direct comparison with optical sensing data.

| Molecule | Effect of pretreatment on [Ca2+]i elevation mediated by trypsin or thrombin |
| --- | --- |
| OC[C@H]1O[C@@H]2O[C@H]3[C@H](O)[C@@H](O)[C@@H](O[C@H]4[C@H](O)[C@@H](O)[C@@H](O[C@H]5[C@H](O)[C@@H](O)[C@@H](O[C@H]6[C@H](O)[C@@H](O)[C@@H](O[C@H]7[C@H](O)[C@@H](O)[C@@H](O[C@H]1[C@H](O)[C@H]2O)O[C@@H]7CO)O[C@@H]6CO)O[C@@H]5CO)O[C@@H]4CO)O[C@@H]3CO [αCD, α-cyclodextrin] | had no effect on both trypsin and thrombin-induced responses |
| methyl-β-cyclodextrin [mβCD] | a dose-dependent suppression of [Ca^2+]i elevation mediated by either trypsin or thrombin |

Test system: EGF-induced response of quiescent A431 cells
Experiment: Effect of compound pretreatment on EGF-induced DMR response
Type: cell-based, human
Conditions: not given
Procedure: Both A431 and CHO-K1 cells were grown in Dulbecco's modified Eagle's medium (DMEM) supplemented with 10% fetal calf serum, 100 μg/ml penicillin, and 100 μg/ml streptomycin. For cell culture, certain numbers of cells (2×10^5 to 1×10^6), either A431 or CHO-K1, were suspended in […] medium were placed in each well of a 96 well Corning Epic Biosensor microplate, and were cultured at 37° C. in air/5% CO2 for certain time until the cell density reached ˜90% and above (unless specified). The resulted cells were termed as “profilerating” cells. The “quiescent” cells were obtained by culturing the profilerating cells of desired confluencies with a medium containing no or little (˜0.1% fetal bovine serum (FBS)) for at least 16 hours.
During the assays, the cells in 100 μl medium were subject to two 25 μl HBSS buffer containing 20 mM HEPES, pH 7.4, each separated by at least 15 minutes before 50 μl stimulus-containing solution was applied. During all these steps, a parallel angular interrogation system was used to monitor the real time kinetics of cellular responses. For compound effect studies, a modified protocol was used which starts with 50 μl medium, and subject to sequential treatment: 25 μl HBSS buffer twice (each separated by at least 15 minutes), 50 μl compound solution and finally 50 μl stimulus-containing solution.

| Molecule | Effect of pretreatment on 32 nM EGF-induced response |
| --- | --- |
| C[S+]([O-])c1ccc(-c2nc(-c3ccncc3)c(-c3ccc(F)cc3)[nH]2)cc1 (centres unmarked) [SB203580] | only led to a partial attenuation |
| N#CC(=C(/N)Sc1ccccc1N)/C(C#N)=C(\N)Sc1ccccc1N [U0126] | significantly compressed the amplitudes of both the P-DMR and N-DMR signals with a delayed time τ |

Same assay, conditions: quiescent A431 cells; 32 nM EGF

| Molecule | Effect of pretreatment on 32 nM EGF-induced response |
| --- | --- |
| COC(=O)[C@@]1(OC)C[C@H]2O[C@]1(C)n1c3ccccc3c3c4c(c5c6ccccc6n2c5c31)C(=O)N(C)C4 [KT5823] | little effect on the response |
| CCCCCCOC(=O)[C@]1(O)C[C@@H]2O[C@@]1(C)n1c3ccccc3c3c4c(c5c6ccccc6n2c5c31)C(=O)NC4 [KT 5720] | little effect on the response |
| CCCCOc1cc(CC2CNC(=O)N2)ccc1OC (centres unmarked) [Ro 20-1724] | None of these inhibitors had an obvious effect on the responses |
| Oc1ccc(-c2nc(-c3ccc(F)cc3)c(-c3ccncc3)[nH]2)cc1 [SB20219] | only led to a partial attenuation |
| CN(C(=O)CCCOc1ccc2[nH]c(=O)ccc2c1)C1CCCCC1 [cilostamide] | None of these inhibitors had an obvious effect on the responses |
| Cc1[nH]c(=O)c(C#N)cc1-c1ccncc1 [milrinone] | None of these inhibitors had an obvious effect on the responses |
| R(−)-rolipram | None of these inhibitors had an obvious effect on the responses |

Same assay, conditions: starved A431 cells; 8 nM EGF; 30-minute pretreatment; GH 0.5 ng/ml, PD98059 0.1 mM, PP1 1 μM, wortmannin 0.1 μM, DIP 50 μM

| Molecule | Effect of pre-treatment on EGF-induced P-DMR and N-DMR signals |
| --- | --- |
| COc1cccc(-c2cc(=O)c3ccccc3o2)c1N [PD98059] | significantly reduced both the binding and DMR signals |
| growth hormone | significantly reduced both the binding and DMR signals |

Test system: protease activated receptors PAR1 and PAR2
Experiment: not given
Type: cell-based, human
Conditions: 40 unit/ml thrombin, 200 nM trypsin; αCD up to 8 mM
Procedure: Human epidermoid carcinoma A431 cells (American Type Cell Culture) were grown in Dulbecco's modified Eagle's medium (DMEM) supplemented with 10% fetal bovine serum (FBS), 4.5 g/liter glucose, 2 mM glutamine, and antibiotics. ˜3-7.5×10^4 cells at passage 3 to 5 suspended in 200 μl the DMEM medium containing 10% FBS were placed in each well of a 96 well microplate, and were cultured at 37° C. under air/5% CO2 until ˜95% confluency was reached (˜2-4 days).
The compound or PAR agonist solutions were made in 1×HBSS in order to match the refractive index between the cell medium and compound solution, thus minimizing the unwanted effect of bulk index change due to the introduction of compound solution which can temporarily overwhelms any DMR signal as it occurs.

| Molecule | Effect of pretreatment on DMR induced by thrombin or trypsin |
| --- | --- |
| OC[C@H]1O[C@@H]2O[C@H]3[C@H](O)[C@@H](O)[C@@H](O[C@H]4[C@H](O)[C@@H](O)[C@@H](O[C@H]5[C@H](O)[C@@H](O)[C@@H](O[C@H]6[C@H](O)[C@@H](O)[C@@H](O[C@H]7[C@H](O)[C@@H](O)[C@@H](O[C@H]1[C@H](O)[C@H]2O)O[C@@H]7CO)O[C@@H]6CO)O[C@@H]5CO)O[C@@H]4CO)O[C@@H]3CO [αCD, α-cyclodextrin] | little effect on both agonist-induced DMR responses |
| methyl-β-cyclodextrin [mβCD] | a dose-dependent alteration of the optical signatures induced by thrombin or trypsin |

Same assay, conditions: high doses (>10 mM)

| Molecule | Cell detachment |
| --- | --- |
| OC[C@H]1O[C@@H]2O[C@H]3[C@H](O)[C@@H](O)[C@@H](O[C@H]4[C@H](O)[C@@H](O)[C@@H](O[C@H]5[C@H](O)[C@@H](O)[C@@H](O[C@H]6[C@H](O)[C@@H](O)[C@@H](O[C@H]7[C@H](O)[C@@H](O)[C@@H](O[C@H]1[C@H](O)[C@H]2O)O[C@@H]7CO)O[C@@H]6CO)O[C@@H]5CO)O[C@@H]4CO)O[C@@H]3CO [αCD, α-cyclodextrin] | resulted in significant amounts of cells detached from the surface of the biosensors |

Test system: endogenous GPCRs in A431 cells
Experiment: DMR optical biosensor profiling of GPCR agonists
Type: cell-based, human
Conditions: fully quiescent A431 cells

| Molecule | Dose-dependent switching of optical signature |
| --- | --- |
| CC(CCCCC(=O)Nc1ccc(C(F)(F)F)cc1)NCCc1cnc[nH]1 (centres unmarked) [HTMT] | At low doses (<˜40 nM), HTMT dose-dependently resulted in a typical Gi-type optical signature; also recorded: became almost steady (i.e., no obvious DMR); also recorded: switching to a typical Gs-type optical signature |
| oleoyl-L-α-lysophosphatidic acid [LPA] | typical Gi-type optical signature at low doses of LPA; also recorded: switched to Gq-type optical signature at high doses of LPA |

Same assay, conditions: quiescent A431; first class = Gq-type, second = Gs-type, third = Gi-type, fourth = no significant DMR

| Molecule | Class of optical signature (DMR) induced by agonist |
| --- | --- |
| NC[C@@H]1O[C@H](C23CC4CC(CC(C4)C2)C3)Cc2c1ccc(O)c2O [A-77636] | did not exhibited any significant DMR signals |
| CN1CCC(c2c[nH]c3ccc(O)cc23)CC1 [BRL 54443] | did not exhibited any significant DMR signals |
| C[C@@H](NC(=O)[C@@H](N)Cc1ccc(O)cc1)C(=O)NCC(=O)N(C)[C@@H](Cc1ccccc1)C(=O)NCCO [DAMGO] | did not exhibited any significant DMR signals |
| Oc1cc2c(cc1O)C(c1ccccc1)CNCC2 (centres unmarked) [SKF38392] | did not exhibited any significant DMR signals |
| Brc1c(NC2=NCCN2)ccc2nccnc12 [UK14304] | did not exhibited any significant DMR signals |
| CCCCC/C=C\C/C=C\C/C=C\C/C=C\CCCC(=O)NCCO [anandamide] | did not exhibited any significant DMR signals |
| CNC[C@H](O)c1ccc(O)c(O)c1 [epinephrine] | second class of optical signatures |
| CC(C)NCC(O)c1ccc(O)c(O)c1 (centres unmarked) [isoprenternol] | second class of optical signatures |
| CC[C@H](C)[C@H](NC(=O)[C@@H]1CCCN1C(=O)[C@@H](NC(=O)[C@@H](N)Cc1ccccc1)C(C)C)C(=O)N[C@@H](Cc1ccccc1)C(=O)N[C@H](C(=O)N[C@@H](Cc1ccc(O)cc1)C(=O)NCC(=O)N[C@@H](CCC(=O)O)C(=O)N[C@@H](CC(C)C)C(=O)N[C@@H](CCC(N)=O)C(=O)N[C@@H](CCCNC(=N)N)C(=O)N[C@@H](CCSC)C(=O)N[C@@H](CCC(N)=O)C(=O)N[C@@H](CCC(=O)O)C(=O)N[C@@H](CCCCN)C(=O)N[C@@H](CCC(=O)O)C(=O)N[C@@H](CCCNC(=N)N)C(=O)N[C@@H](CC(N)=O)C(=O)N[C@@H](CCCCN)C(=O)NCC(=O)N[C@@H](CCC(N)=O)C(=O)O)[C@@H](C)O [motilin] | did not exhibited any significant DMR signals |
| Cc1cc(C(C)(C)C)c(O)c(C)c1CC1=NCCN1 [oxymetazoline] | did not exhibited any significant DMR signals |
| Angiotensin II (DRVYIHPF; Angiotensin-2; UniProt P01019 25-32, looked up) [agonist, AGTR1] | did not exhibited any significant DMR signals |
| apelin 1-13 | did not exhibited any significant DMR signals |
| apelin 1-17 | did not exhibited any significant DMR signals |
| dynorphin A (YGGFLRRIRPKLKWDNQ; Dynorphin A(1-17); UniProt P01213 207-223, looked up) [agonist, OPRM1 and OPRK1] | did not exhibited any significant DMR signals |
| endothelin-1 (CSCSSLMDKECVYFCHLDIIW; ends and bridges not checked; cysteine pairing not given here; UniProt P05305 53-73, looked up) [agonist, EDNRA and EDNRB] | did not exhibited any significant DMR signals |
| glucagon | did not exhibited any significant DMR signals |
| interferon-γ-inducible protein-10 [IP-10] | did not exhibited any significant DMR signals |
| interleukin-8 | did not exhibited any significant DMR signals |
| neurokinin A (HKTDSFVGLM; ends and bridges not checked; UniProt P20366 98-107, looked up) [agonist, TACR2] | did not exhibited any significant DMR signals |
| neuromedin N (IPYIL; Neuromedin N; UniProt P30990 144-148, looked up) [agonist, NTSR1] | did not exhibited any significant DMR signals |
| neuropeptide Y | did not exhibited any significant DMR signals |
| oleoyl-L-α-lysophosphatidic acid [LPA] | third class of optical signatures |
| substance P (RPKPQQFFGLM; ends and bridges not checked; UniProt P20366 58-68, looked up) [agonist, TACR1] | did not exhibited any significant DMR signals |
